Data from ChEMBL document CHEMBL1201862, “PubChem BioAssay data set” (2004).
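Cultured in 96-well plates, cells were exposed to test compound for 48 hours across five concentrations. At the GI50, growth is halved.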 Active and inactive are the calls of the source. Rule as the data show it: active = GI50 up to about 1.1 µM and inactive = higher.

Experiments:
Test in all cases: DTP human tumour cell line panel, 48 h
[1] = test system: SW-620
[2] = test system: SNB-19
[3] = test system: SN12C
[4] = test system: A549
[5] = test system: M14
[6] = test system: 786-0
[7] = test system: NCI-H522
[8] = test system: SNB-75
[9] = test system: SK-OV-3
[10] = test system: HCT-116
[11] = test system: SK-MEL-28
[12] = test system: OVCAR-3
[13] = test system: SF-539
[14] = test system: HOP-92
[15] = test system: EKVX

Measured: GI50

COC(=O)c1c(OC(=O)c2ccccc2)noc1CC(=O)OC1C=CCCC1 (stereo unspecified)
inactive: [1] > 100 µM | [2] > 100 µM | [3] > 100 µM | [4] > 100 µM | [5] > 100 µM | [6] > 100 µM | [7] 45.4 µM | [8] > 100 µM | [9] > 100 µM | [10] > 100 µM | [11] > 100 µM | [12] > 100 µM | [13] > 100 µM

O=C(CC1(O)C(=O)Nc2ccccc21)c1ccc(Cl)c(Cl)c1 (stereo unspecified)
inactive: [14] > 100 µM | [1] > 100 µM | [2] > 100 µM | [3] > 100 µM | [4] > 100 µM | [5] > 100 µM | [15] 69.3 µM | [6] > 100 µM | [7] > 100 µM | [8] > 100 µM | [9] > 100 µM | [10] > 100 µM | [11] > 100 µM | [13] > 100 µM

C/N=C1\CC2c3cc(OC)c(OC)cc3CCN2C2=C1C(=O)CC(C)(C)C2 (stereo unspecified)
inactive: [14] > 100 µM | [1] > 100 µM | [2] > 100 µM | [3] > 100 µM | [4] > 100 µM | [15] > 100 µM | [6] > 100 µM | [7] > 100 µM | [8] > 100 µM | [10] > 100 µM | [11] > 100 µM | [12] > 100 µM | [13] > 100 µM

CC1=NOC(=O)/C1=C/c1ccccc1O
inactive: [14] > 100 µM | [1] 20.4 µM | [2] > 100 µM | [3] > 100 µM | [4] > 100 µM | [5] > 100 µM | [15] > 100 µM | [6] > 100 µM | [7] > 100 µM | [8] > 100 µM | [9] > 100 µM | [10] > 100 µM | [11] > 100 µM | [12] > 100 µM | [13] > 100 µM

Cc1ccn2c(c1)nc1nc3ccccc3nc12
inactive: [14] > 100 µM | [1] > 100 µM | [2] > 100 µM | [4] > 100 µM | [5] > 100 µM | [15] > 100 µM | [6] > 100 µM | [7] > 100 µM | [8] 78.5 µM | [9] 59.6 µM | [11] > 100 µM | [12] > 100 µM | [13] > 100 µM

COC(=O)Nc1nc2cc(Br)ccc2[nH]1
inactive: [14] > 100 µM | [1] 37 µM | [2] > 10 µM | [3] > 100 µM | [4] 50.8 µM | [5] 43.9 µM | [15] > 100 µM | [6] 53.2 µM | [7] 14.4 µM | [8] 56 µM | [9] 27.5 µM | [10] 57 µM | [11] > 100 µM | [12] 28.5 µM | [13] 22.6 µM

CC1=C(c2cc(C(=O)Nc3cc(C)ccc3C)nc(N)n2)Sc2ccccc2N1
inactive: [14] > 100 µM | [1] > 100 µM | [2] > 100 µM | [3] > 100 µM | [4] > 100 µM | [5] > 100 µM | [15] > 100 µM | [6] > 100 µM | [7] > 100 µM | [8] > 100 µM | [9] > 100 µM | [10] > 100 µM | [11] > 100 µM | [12] > 100 µM | [13] > 100 µM

NN/C(Cc1ccccc1)=N\NO
inactive: [14] > 100 µM | [1] > 100 µM | [2] > 100 µM | [4] > 100 µM | [5] 63.8 µM | [15] > 100 µM | [6] > 100 µM | [8] > 100 µM | [10] 47.2 µM | [11] > 100 µM | [12] > 100 µM | [13] > 100 µM

O=c1/c(=C/c2cccc3ccccc23)sc2nc3ccccc3n12
inactive: [14] > 100 µM | [1] > 100 µM | [2] > 100 µM | [3] > 100 µM | [4] > 100 µM | [5] > 100 µM | [15] > 100 µM | [6] > 100 µM | [7] > 100 µM | [8] 71.9 µM | [10] > 100 µM | [11] > 100 µM | [12] > 100 µM | [13] > 100 µM

C=CCOC(=O)C1CCC(=O)N1C(=O)C(Cl)Cl (stereo unspecified)
inactive: [14] > 100 µM | [1] > 100 µM | [2] > 100 µM | [3] > 100 µM | [4] > 100 µM | [5] > 100 µM | [15] > 100 µM | [6] > 100 µM | [7] > 100 µM | [8] 61.8 µM | [9] > 100 µM | [10] > 100 µM | [11] > 100 µM | [12] > 100 µM

Cc1ccc(Nc2ccc(Nc3ccc(C)cc3S(=O)(=O)O)c3c2C(=O)c2ccccc2C3=O)c(S(=O)(=O)O)c1
inactive: [1] > 100 µM | [2] > 100 µM | [3] > 100 µM | [4] > 100 µM | [5] > 100 µM | [15] > 100 µM | [6] > 100 µM | [7] > 100 µM | [8] 94.6 µM | [9] > 100 µM | [10] > 100 µM | [11] > 100 µM | [12] > 100 µM | [13] > 100 µM

C=CCc1cc(OC)c2c(c1)C(OC)CC(c1ccc(OC)c(OC)c1)O2 (stereo unspecified)
inactive: [1] > 100 µM | [2] > 100 µM | [3] > 100 µM | [4] > 100 µM | [5] 78.2 µM | [15] > 100 µM | [6] > 100 µM | [8] 54.8 µM | [9] > 100 µM | [10] > 100 µM | [11] > 100 µM | [12] > 100 µM | [13] > 100 µM

CC[C@@H]1C[C@H]2CC3c4[nH]c5ccc(O)cc5c4CCN(C2)C31
inactive: [14] 36.8 µM | [1] > 100 µM | [2] > 100 µM | [3] > 100 µM | [4] > 100 µM | [5] > 100 µM | [15] > 100 µM | [6] > 100 µM | [8] > 100 µM | [10] > 100 µM | [11] > 100 µM | [12] > 100 µM | [13] > 100 µM

N#Cc1ccccc1NC(=O)C(=O)C1NC(=S)NC1=O (stereo unspecified)
inactive: [14] > 100 µM | [1] > 100 µM | [2] > 100 µM | [3] > 100 µM | [4] > 100 µM | [5] > 100 µM | [15] > 100 µM | [6] > 100 µM | [8] > 100 µM | [10] > 100 µM | [11] > 100 µM | [12] > 100 µM | [13] > 100 µM
